Reference: patent US7138493B1, “ATP-binding cassette protein responsible for cytotoxin resistance” (The United States of America as represented by the …, priority 1998, dated 2006)

Tests used:
[1] = system: cells that overexpress MXR1; assay: Drug resistance of cells that overexpress MXR1; type: cell-based
Description: These include mitoxantrone, several anthracyclines, rhodamine, daunomycin, SN-38 (the active metabolite of CPT-11), topotecan, and bisantrene. To identify compounds that can reverse the effect of ABCP overexpression, the concentration of drug that inhibits the proliferation of resistant cells by 50% (IC50) can be measured by an assay in the presence and absence of putative inhibitors. Compounds that cause a significant decrease in the IC50 will represent inhibitors and be characterized further.
These include mitoxantrone, several anthracyclines, rhodamine, daunomycin, SN-38 (the active metabolite of CPT-11), topotecan, and bisantrene. To identify compounds that can reverse the effect of MXR1 overexpression, the concentration of drug that inhibits the proliferation of resistant cells by 50% (IC50) will be measured in the presence and absence of putative inhibitors. Compounds that cause a significant decrease in the IC50 will represent inhibitors and be characterized further. For example, S1-M1-80 cells can be incubated in media containing 30 micromolar (IC10) of mitoxantrone and the proliferation of the cells measured by sulforhodamine staining after 96 hours with and without the addition of various potential inhibitors, as a screening assay. Next, for compounds that have potential activity, a formal calculation of the IC50 can be made by incubating the cells in a range of concentrations, diluting 3-fold from 3 mM, again, with and without the inhibitor in question. […] In the absence of a reversal agent, the IC50 is 100 micromolar for the S1M1-80 cells. Compounds that lower the IC50 for mitoxantrone can be tested for their ability to also lower the IC50 for other MXR1-transporting drugs such as adriamycin, topotecan, or bisantrene.

S1-M1-80 cells = assay: Proliferation of mitoxantrone resistant cells measured by sulforhodamine staining; type: cell-based, human
Experimental: The cells are then contacted with a toxic chemotherapy drug, such as mitoxantrone or daunomycin, in an amount that permits cell survival due to the resistance conferred by the ATP-binding cassette protein. The amount used is preferably from about 30 μM to about 3 mM. The cells are exposed to the drug for a time that is preferably from about 48 hours to about 96 hours. Cell growth is measured for these cells based on sulforhodamine staining measurement. Alternatively, cell growth can be monitored by vital stains, metabolite measurements or counting cell divisions.
One specific way to measure cell viability is by a calorimetric assay (Skehan et al., Natl. Cancer Inst. 82: 1117–1121 (1990)). […] The number of viable cells can then be determined by measuring the OD at 570 nm. Alternatively, viability of cells can be measured by counting cells with a cell counter or by incorporation of tritiated thymidine.
These include mitoxantrone, several anthracyclines, rhodamine, daunomycin, SN-38 (the active metabolite of CPT-11), topotecan, and bisantrene. […] For example, S1-M1-80 cells can be incubated in media containing 30 micromolar (IC10) of mitoxantrone and the proliferation of the cells measured by sulforhodamine staining after 96 hours with and without the addition of various potential inhibitors, as a screening assay. […]

| Compound | resistance of cells that overexpress MXR1 to the drug [1] | IC50 (S1-M1-80 cells; Homo sapiens, S1-M1-80, S1M1-80 cells, in the absence of a reversal agent, read-out: IC50 (concentration of drug that inhibits the proliferation of resistant cells by 50%)) | IC10 (S1-M1-80 cells; S1-M1-80 cells, concentration in media for the screening assay, 96 hours) |
| --- | --- | --- | --- |
| COc1cccc2c1C(=O)c1c(O)c3c(c(O)c1C2=O)C[C@@](O)(C(C)=O)C[C@@H]3O[C@H]1C[C@H](N)[C@H](O)[C@H](C)O1 [daunomycin] | resistant |  |  |
| O=C1c2c(O)ccc(O)c2C(=O)c2c(NCCNCCO)ccc(NCCNCCO)c21 [mitoxantrone] | resistant | 100 µM | 30 µM |
| CC[C@@]1(O)C(=O)OCc2c1cc1n(c2=O)Cc2cc3c(CN(C)C)c(O)ccc3nc2-1 [topotecan] | resistant |  |  |
| rhodamine | resistant |  |  |
| CCc1c2c(nc3ccc(O)cc13)-c1cc3c(c(=O)n1C2)COC(=O)[C@]3(O)CC [SN-38] | resistant |  |  |
| C(=N\NC1=NCCN1)/c1c2ccccc2c(/C=N/NC2=NCCN2)c2ccccc12 [bisantrene] | resistant |  |  |
